{"source": "patent US9695240B2", "about": "“Anthracycline derivative conjugates, process for their preparation and their use as antitumor compounds” (Genentech, Inc., priority 2008, dated 2017)", "key": {"[1]": {"test_system": "BT-474 cells", "test": "CellTiter-Glo in vitro cell proliferation assay, BT-474", "format": "cell-based", "text": "(§1) Cell-based in vitro assays may be used to measure viability, i.e. proliferation (IC50), cytotoxicity (EC50), and induction of apoptosis (caspase activation) of the ADC. The CellTiter-Glo® Luminescent Cell Viability Assay is a commercially available (Promega Corp., Madison, Wis.), homogeneous assay method based on the recombinant expression of Coleoptera luciferase (U.S. Pat. Nos. 5,583,024; 5,674,713; 5,700,670). This cell proliferation assay determines the number of viable cells in culture based on quantitation of the ATP present, an indicator of metabolically active cells (Crouch et al (1993) J. Immunol. Meth. 160:81-88; U.S. Pat. No. 6,602,677). The CellTiter-Glo® Assay is conducted in 96 well format, making it amenable to automated high-throughput screening (HTS) (Cree et al (1995) AntiCancer Drugs 6:398-404). The homogeneous assay procedure involves adding the single reagent (CellTiter-Glo® Reagent) directly to cells cultured in serum-supplemented medium. Cell washing, removal of medium and multiple pipetting steps are not required. The system detects as few as 15 cells/well in a 384-well format in 10 minutes after adding reagent and mixing.\n(§2) The in vitro potency of antibody-drug conjugates was measured by a cell proliferation assay (FIGS. 8-29). The CellTiter-Glo® Luminescent Cell Viability Assay is a commercially available (Promega Corp., Madison, Wis.), homogeneous assay method based on the recombinant expression of Coleoptera luciferase (U.S. Pat. Nos. 5,583,024; 5674,713; 5,700,670). This assay determines the number of viable cells in culture based on quantitation of the ATP present, an indicator of metabolically active cells (Crouch et al (1993) J. Immunol. Meth. 160:81-88; U.S. Pat. No. 6,602,677). The CellTiter-Glo® Assay was conducted in 96 well format, making it amenable to automated high-throughput screening (HTS) (Cree et al (1995) AntiCancer Drugs 6:398-404). The homogeneous assay procedure involves adding the single reagent (CellTiter-Glo® Reagent) directly to cells cultured in serum-supplemented medium.\n(§3) The homogeneous “add-mix-measure” format results in cell lysis and generation of a luminescent signal proportional to the amount of ATP present. The substrate, Beetle Luciferin, is oxidatively decarboxylated by recombinant firefly luciferase with concomitant conversion of ATP to AMP and generation of photons. Viable cells are reflected in relative luminescence units (RLU). Data can be recorded by luminometer or CCD camera imaging device. The luminescence output is presented as RLU, measured over time. Alternatively, photons from luminescence can be counted in a scintillation counter in the presence of a scintillant. The light units can be represented then as CPS—counts per second.\n(§4) Efficacy of ADC were measured by a cell viability assay employing the following protocol, adapted from CellTiter Glo Luminescent Cell Viability Assay, Promega Corp. Technical Bulletin TB288 and Mendoza et al (2002) Cancer Res. 62:5485-5488: • 1. An aliquot of 50 μl of cell culture containing about 1000 or more cells, including: HER2-expressing and CD22-expressing cells, in medium was deposited in each well of a 96-well, opaque-walled, clear bottom plate. • 2. ADC (50 μl) was added to triplicate experimental wells to final concentration of 10 μg/mL, with “no ADC” control wells receiving medium alone, and incubated for 3 or more days. • 3. The plates were equilibrated to room temperature for approximately 30 minutes. • 4. CellTiter-Glo Reagent (100 μl) was added. • 5. The contents were mixed for 2 minutes on an orbital shaker to induce cell lysis. • 6. The plate was incubated at room temperature for 10 minutes to stabilize the luminescence signal. • 7. Luminescence was recorded and reported in graphs as RLU=relative luminescence units."}, "[2]": {"test_system": "doxorubicin-resistant (DoxRes) HER2 cells", "test": "CellTiter-Glo in vitro cell proliferation assay, doxorubicin-resistant HER2", "format": "cell-based", "text": "as §1, §2, §3, §4"}, "[3]": {"test_system": "tumor models", "conditions": "cited from earlier work"}, "[4]": {"test_system": "Burkitt's lymphoma Bjab-luc xenograft tumors", "test": "in vivo Bjab-luc xenograft tumor efficacy study", "set-up": "species or system CB17 SCID mice", "protocol": "The therapeutic effect of the antibody-drug conjugate (ADC) compounds and the improvement of their therapeutic efficacy in comparison with the parent drug, were assessed in animal models of human transplanted tumors. Mice bearing xenografts of human tumors were treated with suitable doses of antibody-drug conjugates, of PNU-159682 free drug, and naked antibody, at certain doses, and the tumor growth was recorded and compared in the different treatment groups. FIGS. 30-32 show the efficacy of the antibody-drug conjugates of Formula Ic by xenograft tumor inhibition in mice.\nThe efficacy of the antibody-drug conjugates of the invention may be measured in vivo by implanting allografts or xenografts of cancer cells or primary tumors in rodents and treating the tumors with ADC according to the procedures of Example 12. Variable results are to be expected depending on the cell line, the specificity of antibody binding of the ADC to receptors present on the cancer cells, dosing regimen, and other factors. For example, the in vivo efficacy of anti-HER2 ADC may be measured by a high expressing HER2 transgenic explant mouse model. […] Subjects are treated once with ADC and monitored over 3-6 weeks to measure the time to tumor doubling, log cell kill, and tumor shrinkage. Follow up dose-response and multi-dose experiments may be further conducted.\nThe Bjab-luc (EBV-negative Burkitt's lymphoma, luciferase expressing Bjab cells) tumors express CD22 receptor protein (Polson et al (2009) Cancer Res. 69(6):2358-2364; US 2008/0050310; US 2005/0276812). CD22 is expressed only in the B-cell compartment and on the surface of most NHL cells (D'Arena et al (2000) Am J Hematol. 64:275-81; Olejniczak et al (2006) Immunol Invest. 35:93-114). Efficacy in inhibiting the Bjab-luc xenograft tumor in mice as a model system may predict the clinical response in treating patients with hematopoietic malignancies such as non-Hodgkins lymphoma.\nEfficacy studies were performed using SCID mice (Charles River Laboratories). […] When tumor volumes reached 150-200 mm^3 (typically Day 14 to Day 21 after inoculation), the mice were segregated into sample groups of 9-10 mice per group and the tumor volume was determined in each mouse. […] ADC doses were either measured as the mass of the conjugated cytotoxic small molecule drug per surface area of the mouse, or as a constant mass of ADC per mass of the mouse (e.g., 5 mg of ADC/kg mouse). […] Tumor volume was measured using calipers according to the formula: V (mm^3)=0.5A×B^2, where A and B are the long and short diameters, respectively. […] Data collected from each experimental group were expressed as mean±SE."}, "[5]": {"test_system": "SK-BR-3 cells", "test": "CellTiter-Glo in vitro cell proliferation assay, SK-BR-3", "format": "cell-based", "text": "as §1, §2, §3, §4"}, "[6]": {"test_system": "MCF7 cells", "test": "CellTiter-Glo in vitro cell proliferation assay, MCF7", "format": "cell-based, human", "text": "as §1, §2, §3, §4"}, "[7]": {"conditions": "8.77 ug/kg single iv dose day 0, 48 day study"}}, "note": "Entries after “also recorded” stand apart in the source; their conditions may differ."}
{"smiles": "COc1cccc2c1C(=O)c1c(O)c3c(c(O)c1C2=O)C[C@@](O)(C(=O)CO)C[C@@H]3O[C@H]1C[C@H]2[C@H](O[C@@H]3[C@@H](OC)OCCN32)[C@H](C)O1", "note": "[PNU-159682, 3′-deamino-3″,4′-anhydro-[2″(S)-methoxy-3″(R)-oxy-4″-morpholinyl]doxorubicin, reference compound]", "values": [{"measurement": "BT-474 in vitro cell viability at 3 days, in words", "setting": "[1]; brief (1 hr) exposure", "value": "effectively inhibited growth"}, {"measurement": "BT-474 in vitro cell viability at 3 days, anti-proliferative activity in words", "setting": "[1]; continuous exposure, 3 days", "value": "most potently inhibited; also recorded: caused cytotoxicity at all doses tested"}, {"measurement": "DoxRes HER2 in vitro cell viability at 3 days, in words", "setting": "[2]; brief (1 hr) exposure", "value": "effectively inhibited growth"}, {"measurement": "DoxRes HER2 in vitro cell viability at 3 days, anti-proliferative activity in words", "setting": "[2]; continuous exposure, 3 days", "value": "most potently inhibited; also recorded: inhibited growth at all concentrations tested"}, {"measurement": "antitumor activity in in vivo tumor models, in words", "setting": "[3]", "value": "effective in vivo tumor models"}, {"measurement": "CR-complete tumor regression", "setting": "[4]; [7]", "value": 0}, {"measurement": "PR-partial tumor regression", "setting": "[4]; [7]", "value": 0}, {"measurement": "TI-tumor incidence", "setting": "[4]; [7]", "value": "9/9"}, {"measurement": "tumor growth inhibition in Bjab-luc xenograft, in words", "setting": "[4]; single dosing on day 0, doses of FIG. 30", "value": "no effect on tumor growth"}, {"measurement": "SK-BR-3 in vitro cell viability at 3 days, in words", "setting": "[5]; brief (1 hr) exposure", "value": "effectively inhibited growth"}, {"measurement": "SK-BR-3 in vitro cell viability at 3 days, anti-proliferative activity in words", "setting": "[5]; continuous exposure, 3 days", "value": "most potently inhibited; also recorded: caused cytotoxicity at all doses tested"}, {"measurement": "MCF7 in vitro cell viability at 3 days, in words", "setting": "[6]; brief (1 hr) exposure", "value": "effectively inhibited growth"}, {"measurement": "MCF7 in vitro cell viability at 3 days, anti-proliferative activity in words", "setting": "[6]; continuous exposure, 3 days", "value": "most potently inhibited; also recorded: caused cytotoxicity at all concentrations tested"}]}
